Data as given in patent US20250215039A1, “NUCLEOSIDES FOR TREATING CANCER” (PRIMEFOUR THERAPEUTICS, INC., priority 2022, published 2025).
Read-outs that look alike come from different tables or passages of the source.

System: cancer cell lines
Assay: Cancer cell proliferation activity (CellTiterGlo, 72 h)
Format: cell-based
Conditions: 72 h, 72 h, read-out: IC50
Outline: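 Cells seeded overnight at 37 °C, then dosed with compound at 0.1% final DMSO and incubated 72 h at 37 °C (5% or 10% CO2 by medium).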

In the case of COC[C@]1(CO)O[C@@H](n2cnc3c(N)nc(F)nc32)C[C@@H]1O [Cpd. No. 140, (2S,3S,5R)-5-(6-amino-2-fluoro-9H-purin-9-yl)-2-(hydroxymethyl)-2-(methoxymethyl)tetrahydrofuran-3-ol], the IC50 (5637 cell line (bladder)) is reported as 660 nM, the IC50 (AS49 cell line (lung)) is reported as 4060 nM and the IC50 (CLS439 cell line (bladder)) is reported as 9830 nM. The IC50 (HS729 cell line (muscle)) was 860 nM, the IC50 (JAR cell line (placenta)) was 330 nM and the IC50 (Homo sapiens, 22Rv1, 72 h, 22RV1 cell line (prostate)) was 1240 nM. For the same compound, the IC50 (Homo sapiens, 786-0, 72 h, 786O cell line (kidney)) was 400 nM, the IC50 (Homo sapiens, A204, 72 h, A204 cell line (muscle)) was 270 nM and the IC50 (Homo sapiens, A673, 72 h, A673 cell line (bone)) was 1950 nM. The IC50 (Homo sapiens, A2780, 72 h, A2780 cell line (ovary)) was 770 nM, the IC50 (Homo sapiens, A-375, 72 h, A375 cell line (skin)) was 210 nM and the IC50 (Homo sapiens, A-431, 72 h, A431 cell line (skin)) was 290 nM. The IC50 (Homo sapiens, ACHN, ACHN cell line (kidney)) was 2850 nM, the IC50 (Homo sapiens, ASPC1, 72 h, ASPC1 cell line (pancreas)) was 230 nM and the IC50 (Homo sapiens, BT-20, 72 h, BT20 cell line (breast)) was 390 nM. It also gave an IC50 (Homo sapiens, BXPC-3, 72 h, BXPC3 cell line (pancreas)) of 3380 nM, an IC50 (Homo sapiens, C-33-A, C33A cell line (cervical)) of 650 nM and an IC50 (Homo sapiens, CAKI-1, 72 h, CAKI1 cell line (kidney)) of 30 nM. It also gave an IC50 (Homo sapiens, COLO 205, 72 h, COLO205 cell line (colon)) of 810 nM, an IC50 (Homo sapiens, COLO-678, 72 h, COLO678 cell line (colon)) of 4150 nM and an IC50 (Homo sapiens, Ca-Ski, CASKI cell line (cervical)) of 200 nM. The IC50 (Homo sapiens, Caco-2, 72 h, CACO2 cell line (colon)) was 660 nM, the IC50 (Homo sapiens, Calu-6, 72 h, CALU6 cell line (lung)) was 300 nM and the IC50 (Homo sapiens, DLD-1, 72 h, DLD1 cell line (colon)) was 2490 nM. For the same compound, the IC50 (Homo sapiens, DU-145, 72 h, DU145 cell line (prostate)) was 160 nM, the IC50 (Homo sapiens, EFO-21, 72 h, EFO21 cell line (ovary)) was 540 nM and the IC50 (Homo sapiens, EJ-28, 72 h, EJ28 cell line (bladder)) was 440 nM. The IC50 (Homo sapiens, Granta-519, 72 h, GRANTA-519 cell line (hematological)) was 3460 nM, the IC50 (Homo sapiens, HCT-15, 72 h, HCT15 cell line (colon)) was 2070 nM and the IC50 (Homo sapiens, HCT-116, 72 h, HCT116 cell line (colon)) was 620 nM. For the same compound, the IC50 (Homo sapiens, HEK293, 72 h, HEK293 cell line (kidney)) was 460 nM, the IC50 (Homo sapiens, HL-60, 72 h, HL-60 cell line (hematological)) was 670 nM and the IC50 (Homo sapiens, HT-29, 72 h, HT29 cell line (colon)) was 300 nM. It also gave an IC50 (Homo sapiens, HT-1080, 72 h, HT1080 cell line (connective tissue)) greater than 50000 nM, an IC50 (Homo sapiens, HeLa, HELA cell line (cervical)) of 490 nM and an IC50 (Homo sapiens, HepG2, 72 h, HEPG2 cell line (liver)) of 450 nM. For the same compound, the IC50 (Homo sapiens, Hs-578T, HS578T cell line, breast) was 470 nM, the IC50 (Homo sapiens, IGROV-1, 72 h, IGROV1 cell line (ovary)) was 340 nM and the IC50 (Homo sapiens, IMR-90, 72 h, IMR90 cell line, lung) was 450 nM. The IC50 (Homo sapiens, J82, 72 h, J82 cell line (bladder)) was 380 nM, the IC50 (Homo sapiens, JEG-3, 72 h, JEG3 cell line (placenta)) was 380 nM and the IC50 (Homo sapiens, JIMT-1, 72 h, JIMT1 cell line (breast)) was 90 nM. It also gave an IC50 (Homo sapiens, K562, 72 h, K-562 cell line (hematological)) of 3950 nM, an IC50 (Homo sapiens, Kasumi 1, 72 h, KASUMI-1 cell line (hematological)) of 80 nM and an IC50 (Homo sapiens, L-363, 72 h, L-363 cell line (hematological)) of 420 nM. The IC50 (Homo sapiens, LoVo, LOVO cell line (colon)) was 190 nM, the IC50 (Homo sapiens, MCF7, 72 h, MCF7 cell line (breast)) was greater than 50000 nM and the IC50 (Homo sapiens, MDA-MB-231, 72 h, MDAMB231 cell line (breast)) was 7320 nM. For the same compound, the IC50 (Homo sapiens, MDA-MB-435, 72 h, MDAMB435 cell line (skin)) was 1690 nM, the IC50 (Homo sapiens, MDA-MB-436, 72 h, MDAMB436 cell line (breast)) was 250 nM and the IC50 (Homo sapiens, MDA-MB-468, 72 h, MDAMB468 cell line (breast)) was 240 nM. For the same compound, the IC50 (Homo sapiens, MG-63, 72 h, MG63 cell line (bone)) was greater than 50000 nM, the IC50 (Homo sapiens, MHH-ES-1, 72 h, MHHES1 cell line (bone)) was 500 nM and the IC50 (Homo sapiens, MIA PaCa-2, 72 h, MIAPACA2 cell line (pancreas)) was greater than 50000 nM. It also gave an IC50 (Homo sapiens, MINO, MINO cell line (hematological)) of 180 nM, an IC50 (Homo sapiens, MV4-11, 72 h, MV4-11 cell line (hematological)) of 160 nM and an IC50 (Homo sapiens, NCI-H23, 72 h, NCI-H23 cell line (lung)) of 640 nM. The IC50 (Homo sapiens, NCI-H82, 72 h, NCIH82 cell line (lung)) was 490 nM, the IC50 (Homo sapiens, NCI-H292, 72 h, NCIH292 cell line (lung)) was 2970 nM and the IC50 (Homo sapiens, NCI-H460, 72 h, NCIH460 cell line (lung)) was 600 nM. It also gave an IC50 (Homo sapiens, OVCAR-3, 72 h, OVCAR3 cell line (ovary)) of 180 nM, an IC50 (Homo sapiens, OVCAR-4, 72 h, OVCAR4 cell line (ovary)) of 600 nM and an IC50 (Homo sapiens, PANC-1, 72 h, PANC1 cell line (pancreas)) greater than 50000 nM. It also gave an IC50 (Homo sapiens, PC-3, 72 h, PC3 cell line (prostate)) of 660 nM, an IC50 (Homo sapiens, PLC-PRF-5, 72 h, PLCPRF5 cell line (liver)) of 4950 nM and an IC50 (Homo sapiens, Panc1005, 72 h, PANC1005 cell line (pancreas)) of 370 nM. The IC50 (Homo sapiens, RD, RD cell line (muscle)) was 870 nM, the IC50 (Homo sapiens, Ramos, RAMOS cell line (hematological)) was 600 nM and the IC50 (Homo sapiens, SAOS-2, 72 h, SAOS2 cell line (bone)) was 360 nM. For the same compound, the IC50 (Homo sapiens, SF-268, 72 h, SF268 cell line (brain)) was greater than 50000 nM, the IC50 (Homo sapiens, SF-295, 72 h, SF295 cell line (brain)) was 1730 nM and the IC50 (Homo sapiens, SK-BR-3, 72 h, SKBR3 cell line (breast)) was 70 nM. It also gave an IC50 (Homo sapiens, SK-HEP1, 72 h, SKHEP1 cell line (liver)) of 3410 nM, an IC50 (Homo sapiens, SK-LMS-1, 72 h, SKLMS1 cell line (uterus)) of 340 nM and an IC50 (Homo sapiens, SK-MEL-5, 72 h, SKMEL5 cell line, skin) of 4010 nM. For the same compound, the IC50 (Homo sapiens, SK-MEL-28, 72 h, SKMEL28 cell line (skin)) was 670 nM, the IC50 (Homo sapiens, SK-N-AS, SKNAS cell line (brain)) was 630 nM and the IC50 (Homo sapiens, SK-N-SH, SKNSH cell line (brain)) was 320 nM. It also gave an IC50 (Homo sapiens, SK-OV-3, 72 h, SKOV3 cell line (ovary)) of 620 nM, an IC50 (Homo sapiens, SNB-75, 72 h, SNB75 cell line (brain)) of 1510 nM and an IC50 (Homo sapiens, SU-DHL10, 72 h, SU-DHL-10 cell line (hematological)) of 530 nM. For the same compound, the IC50 (Homo sapiens, SU-DHL-6, 72 h, SU-DHL-6 cell line (hematological)) was 360 nM, the IC50 (Homo sapiens, SW-620, 72 h, SW620 cell line (colon)) was 540 nM and the IC50 (Homo sapiens, T-24, 72 h, T24 cell line (bladder)) was 710 nM. For the same compound, the IC50 (Homo sapiens, TE-671, 72 h, TE671 cell line (muscle)) was 1920 nM, the IC50 (Homo sapiens, THP-1, 72 h, THP-1 cell line (hematological)) was greater than 50000 nM and the IC50 (Homo sapiens, U2OS, U2OS cell line (bone)) was 610 nM. The IC50 (Homo sapiens, U-87 MG, U87MG cell line (brain)) was 3660 nM, the IC50 (Homo sapiens, UMUC3, 72 h, UMUC3 cell line (bladder)) was 3400 nM and the IC50 (Homo sapiens, UO-31, 72 h, UO31 cell line (kidney)) was 280 nM. The IC50 (Homo sapiens, WSU-NHL, WSU-NHL cell line (hematological)) was 430 nM, the IC50 (MT-3, 72 h, MT3 cell line (breast)) was 360 nM and the IC50 (NCI-H358M, NCIH358M cell line (lung)) was 430 nM. It also gave an IC50 (PBMC, PBMC (hematological)) greater than 50000 nM and an IC50 (RD-ES, RDES cell line (bone)) of 270 nM.
